Measurements taken from ChEMBL document CHEMBL2331295, “Characterization of a selective CaMKII peptide inhibitor” (Eur J Med Chem, 2013).
Activity calls are given as the source filed them. No cut-off for these calls is given here.

How the values were obtained:
[1] = target: T1, Calcium/calmodulin-dependent protein kinase type IV (Homo sapiens) (UniProt Q16566); experiment: Inhibition of CAMK4 (unknown origin) using gamma peptide as substrate assessed as incorporation of 32P at 5 uM after 30 mins by scintillation counting analysis in presence of [gamma32P]ATP relative to control
T1 sequence (whole entry): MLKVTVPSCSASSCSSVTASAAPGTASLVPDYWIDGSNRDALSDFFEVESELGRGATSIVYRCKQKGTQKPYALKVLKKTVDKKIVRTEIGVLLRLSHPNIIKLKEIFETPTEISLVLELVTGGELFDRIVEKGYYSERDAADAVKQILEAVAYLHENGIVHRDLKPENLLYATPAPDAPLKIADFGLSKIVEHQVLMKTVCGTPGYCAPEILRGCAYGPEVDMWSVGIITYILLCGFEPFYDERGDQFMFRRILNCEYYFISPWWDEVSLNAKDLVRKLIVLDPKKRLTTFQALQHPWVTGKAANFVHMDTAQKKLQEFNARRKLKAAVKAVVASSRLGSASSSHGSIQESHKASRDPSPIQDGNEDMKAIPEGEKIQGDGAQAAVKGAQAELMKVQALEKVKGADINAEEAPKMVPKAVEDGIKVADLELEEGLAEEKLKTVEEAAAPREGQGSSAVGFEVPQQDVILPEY

[2] = target: Calcium/calmodulin-dependent protein kinase type 1 (Homo sapiens) (UniProt Q14012); experiment: Inhibition of CAMK1 (unknown origin) using ADR1G as substrate assessed as incorporation of 32P at 5 uM after 30 mins by scintillation counting analysis in presence of [gamma32P]ATP relative to control
Sequence of Calcium/calmodulin-dependent protein kinase type 1 (Homo sapiens) (Q14012 whole entry, looked up): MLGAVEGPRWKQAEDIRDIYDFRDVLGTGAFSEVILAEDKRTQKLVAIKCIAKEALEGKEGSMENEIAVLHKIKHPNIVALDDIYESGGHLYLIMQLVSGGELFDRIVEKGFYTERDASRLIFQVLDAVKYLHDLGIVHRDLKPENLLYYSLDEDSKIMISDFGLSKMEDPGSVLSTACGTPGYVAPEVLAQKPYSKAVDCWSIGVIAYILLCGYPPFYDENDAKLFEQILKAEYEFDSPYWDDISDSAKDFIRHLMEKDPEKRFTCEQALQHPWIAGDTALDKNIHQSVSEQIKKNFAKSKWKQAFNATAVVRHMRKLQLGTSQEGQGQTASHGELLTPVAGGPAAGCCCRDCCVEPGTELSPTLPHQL

H9c2 = experiment: Inhibition of serum-induced endogenous CAMK2 activation in […] H9C2 cells at 5 uM after 30 mins relative to control; format: cell-based
[3] = target: Calcium/calmodulin-dependent protein kinase type II subunit alpha (Homo sapiens) (UniProt Q9UQM7); experiment: Inhibition of GFP-tagged CAMK2alpha (unknown origin) expressed in african green monkey Vero cells using syntide2 as substrate assessed as incorporation of 32P at 5 uM after 30 mins by scintillation counting analysis in presence of [gamma32P]ATP relative to control; format: cell-based
Sequence of Calcium/calmodulin-dependent protein kinase type II subunit alpha (Homo sapiens) (Q9UQM7 whole entry): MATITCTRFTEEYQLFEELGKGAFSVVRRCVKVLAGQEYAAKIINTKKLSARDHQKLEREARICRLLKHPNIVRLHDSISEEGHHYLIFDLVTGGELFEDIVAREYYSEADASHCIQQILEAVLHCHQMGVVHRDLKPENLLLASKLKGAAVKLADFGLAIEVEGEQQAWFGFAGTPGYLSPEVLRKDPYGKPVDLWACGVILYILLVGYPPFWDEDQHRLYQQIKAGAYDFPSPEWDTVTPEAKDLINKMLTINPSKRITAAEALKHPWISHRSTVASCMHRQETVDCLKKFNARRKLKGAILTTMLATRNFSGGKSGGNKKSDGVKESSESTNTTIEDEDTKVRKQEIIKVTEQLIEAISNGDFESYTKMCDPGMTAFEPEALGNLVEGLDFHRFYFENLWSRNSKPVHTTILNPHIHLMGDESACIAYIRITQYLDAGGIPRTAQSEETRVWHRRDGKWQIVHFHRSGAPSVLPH

Row | Substance | inhibition [1] | inhibition [2] [%] | inhibition (H9c2) [%] | inhibition [3] [%]
1 | H-RQIKIWFQNRRMKWKKGGCKRPPKLGQIGRAKRVVI-OH | inactive | 6.1 | 52 | –
2 | H-KRPPKLGQIGRSKRVVI-OH | – | – | – | < 70
